# Measured values reported in PMC3366211, “Leishmanicidal Activity of Nine Novel Flavonoids from Delphinium staphisagria” (The Scientific World Journal, 2012).
# What was measured:
# [1] = test system: L. braziliensis promastigote forms; assay: Promastigote forms assay; type: cell-based, Leishmania braziliensis; details: for SI Promastigote forms: IC50 macrophages/IC50 parasite form; for IC50: Leishmania braziliensis, 72 h; for number of times that compound SI exceeds the reference drug SI, Promastigote forms: in brackets, reference Glucantime
# Protocol: (§1) The compounds obtained were dissolved in the culture medium, at dosages of 100, 50, 25, 10, and 1 μM. The effects of each compound against promastigote forms were tested at 72 hours using a Neubauer haemocytometric chamber. The antileishmanial effect is expressed as the IC50, that is, the concentration required to give 50% inhibition, calculated by linear regression analysis from the Kc values of the concentrations employed.
# [2] = test system: L. infantum promastigote forms; assay: Promastigote forms assay; type: cell-based, Leishmania infantum; details: for SI Promastigote forms: IC50 macrophages/IC50 parasite form; for IC50: Leishmania infantum, 72 h; for times SI exceeds the reference drug SI (all forms): extracellular and intracellular forms; for times SI exceeds the reference drug SI (all forms) / number of times that compound SI exceeds the reference drug SI, Promastigote forms: reference Glucantime; for number of times that compound SI exceeds the reference drug SI, Promastigote forms: in brackets
# Protocol: as §1
# [3] = test system: L. braziliensis intracellular amastigote forms; assay: Intracellular amastigote forms assay in J774.2 macrophages; type: cell-based, Leishmania braziliensis; details: for SI Intracellular amastigote forms / number of times that compound SI exceeds the reference drug SI, Intracellular amastigote forms: L. braziliensis; for SI Intracellular amastigote forms: IC50 macrophages/IC50 parasite form; for number of times that compound SI exceeds the reference drug SI, Intracellular amastigote forms: in brackets, reference Glucantime; for IC50: Leishmania braziliensis, L. braziliensis in J774.2 macrophages, 72 h
# Protocol: (§2) Cells were seeded at a density of 1 × 10^4 cells/well in 24-well microplates (Nunc) with rounded coverslips on the bottom and cultured for 2 days. Afterwards the cells were infected in vitro with promastigote forms of L. infantum and L. braziliensis, at a ratio of 10 : 1 during 24 hours. The non-phagocytosed parasites were removed by washing, and then the drugs (at 1, 10, 25, 50, 100 μM) were added. Macrophages with the drugs were incubated for 72 hours at 37°C in 5% CO2.
# (§3) Drug activity was determined on the basis of number of amastigotes in treated and untreated cultures in methanol-fixed and Giemsa-stained preparations. The number of amastigotes was determined by analyzing 200 host cells distributed in randomly chosen microscopic fields. The antileishmanial effect is expressed as the IC50 values are the means of three separate determinations.
# [4] = test system: L. infantum axenic amastigote forms; assay: Axenic amastigote forms assay; type: cell-based, Leishmania infantum; details: for SI Axenic amastigote forms: IC50 macrophages/IC50 parasite form; for IC50: Leishmania infantum, 48 hours per method (72 h); for number of times that compound SI exceeds the reference drug SI, Axenic amastigote forms: in brackets, reference Glucantime
# Protocol: (§4) Axenic amastigotes forms of L. infantum and L. braziliensis were cultured following the methodology described previously by Moreno et al.. Thus, promastigote transformation to amastigotes was obtained after three days of culture in M199 medium (Invitrogen, Leiden, The Netherlands) supplemented with 10% heat-inactivated FCS, 1 g/L β-alanine, 100 mg/L L-asparagine, 200 mg/L sacarose, 50 mg/L sodium pyruvate, 320 mg/L malic acid, 40 mg/L fumaric acid, 70 mg/L succinic acid, 200 mg/L α-ketoglutaric acid, 300 mg/L citric acid, 1.1 g/L sodium bicarbonate, 5 g/L MES, 0.4 mg/L hemin, and 10 mg/L gentamicin pH 5.4 at 37°C. The effect of each compound against axenic amastigotes forms was tested at 48 hours using a Neubauer haemocytometric chamber. The antileishmanial effect is expressed as the IC50.
# [5] = test system: L. infantum intracellular amastigote forms; assay: Intracellular amastigote forms assay in J774.2 macrophages; type: cell-based, Leishmania infantum; details: for SI Intracellular amastigote forms / number of times that compound SI exceeds the reference drug SI, Intracellular amastigote forms: L. infantum; for SI Intracellular amastigote forms: IC50 macrophages/IC50 parasite form; for number of times that compound SI exceeds the reference drug SI, Intracellular amastigote forms: in brackets, reference Glucantime; for IC50: Leishmania infantum, L. infantum in J774.2 macrophages, 72 h
# Protocol: as §2, §3
# [6] = test system: epimastigote forms of Trypanosoma cruzi; set-up: method as in PMID 21466157; details: cited from earlier work
# J774.2 macrophages = assay: Cytotoxicity test for macrophages (flow cytometry); type: cell-based, BALB/c rat; details: Mus musculus, J774.2, 72 h, J774.2 macrophages after 72 h of culture; read-out: Macrophage toxicity IC50
# Protocol: J774.2 macrophages (ECACC number 91051511) were originally obtained from a tumour in a female BALB/c […] in 1968. The cytotoxicity test for macrophages was performed according to the methodology of González et al.. After 72 hours of treatment, cell viability was determined by flow cytometry. Thus, 100 μL/well of propidium iodide solution ([…]) was added and incubated for 10 min at 28°C in darkness. Afterwards, 100 μL/well of fluorescein diacetate (100 ng/mL) was added and incubated under the same conditions. Finally, the cells were recovered by centrifugation at 400 g for 10 min and the precipitate washed with phosphate buffered saline (PBS). Flow cytometric analysis was performed with a FACSVantage flow cytometer (Becton Dickinson). The percentage viability was calculated in comparison with the control culture. The IC50 was calculated using linear regression analysis from the Kc values of the concentrations employed.
# [7] = test system: L. braziliensis axenic amastigote forms; assay: Axenic amastigote forms assay; type: cell-based, Leishmania braziliensis; details: for SI Axenic amastigote forms: IC50 macrophages/IC50 parasite form; for IC50: Leishmania braziliensis, 48 hours per method (72 h); for number of times that compound SI exceeds the reference drug SI, Axenic amastigote forms: in brackets, reference Glucantime
# Protocol: as §4
# [8] = test system: L. braziliensis promastigotes; assay: Metabolite excretion (1H-NMR); type: cell-based, Leishmania braziliensis; details: IC25, 96 hours, vs control
# Protocol: (§5) Cultures of L. infantum and L. braziliensis promastigotes (initial concentration 5 × 10^5 cells/mL) received IC25 concentrations of the compounds (except for control cultures). After incubation for 96 hours at 28°C, the cells were centrifuged at 400 g for 10 min. Then supernatants were collected to determine the excreted metabolites using ^1H-NMR, and, eventually, chemical displacements were expressed in parts per million (ppm), using sodium 2,2-dimethyl-2-silapentane-5-sulphonate as the reference signal. The chemical displacements used to identify the respective metabolites were consistent with those described by Fernández-Becerra et al.
# [9] = test system: L. infantum promastigotes; assay: Ultrastructural alterations (TEM); type: cell-based, Leishmania infantum; details: IC25, 96 hours
# Protocol: (§6) The parasites were cultured at a density of 5 × 10^5 cells/mL in MTL medium, and the cultures contained drugs at the IC25 concentration.
# (§7) After 96 hours, those cultures were centrifuged at 400 g for 10 min, and the pellets produced were washed in PBS and then mixed with 2% (v/v) P-formaldehyde-glutaraldehyde in 0.05 M cacodylate buffer (pH 7.4) for 4 hours at 4°C. After that, the pellets were prepared for TEM employing the technique of González et al..
# [10] = test system: L. infantum promastigotes; assay: Metabolite excretion (1H-NMR); type: cell-based, Leishmania infantum; details: IC25, 96 hours, vs control
# Protocol: as §5
# [11] = test system: L. braziliensis promastigotes; assay: Ultrastructural alterations (TEM); type: cell-based, Leishmania braziliensis; details: IC25, 96 hours
# Protocol: as §6, §7
# L. braziliensis = assay: Infection assay in J774.2 macrophages; type: cell-based, Leishmania braziliensis; details: IC25 concentration; for infection rate decrease, percentage of inhibition capacity: with respect to control
# Protocol: (§8) J774.2 macrophage cells were grown under the same conditions expressed in amastigote forms assay during two days. Afterwards, the cells were infected in vitro with promastigote forms of L. infantum and L. braziliensis, at a ratio of 10 : 1. The drugs (IC25 concentrations) were added immediately after infection and were incubated for 12 hours at 37°C in 5% CO2. The nonphagocytosed parasites and the drugs were removed by washing, and then the infected cultures were grown for 10 days in fresh medium. Fresh culture medium was added every 48 h. The drug activity was determined from the percentage of infected cells and the number of amastigotes per infected cell (in treated and untreated cultures) in methanol-fixed and Giemsa-stained preparations. The percentage of infected cells and the mean number of amastigotes per infected cell were determined by analyzing 200 host cells distributed in randomly chosen microscopic fields. Values are the average of three separate determinations.
# L. infantum = assay: Infection assay in J774.2 macrophages; type: cell-based, Leishmania infantum; details: IC25 concentration; for infection rate decrease, percentage of inhibition capacity: with respect to control
# Protocol: as §8
SMILES,SI Promastigote forms [1],IC50 [1] [µM],"number of times that compound SI exceeds the reference drug SI, Promastigote forms [1]",SI Promastigote forms [2],IC50 [2] [µM],times SI exceeds the reference drug SI (all forms) [2],"number of times that compound SI exceeds the reference drug SI, Promastigote forms [2]",SI Intracellular amastigote forms [3],"number of times that compound SI exceeds the reference drug SI, Intracellular amastigote forms [3]",IC50 [3] [µM],SI Axenic amastigote forms [4],IC50 [4] [µM],"number of times that compound SI exceeds the reference drug SI, Axenic amastigote forms [4]",SI Intracellular amastigote forms [5],"number of times that compound SI exceeds the reference drug SI, Intracellular amastigote forms [5]",IC50 [5] [µM],IC50 (J774.2 macrophages) [µM],SI Axenic amastigote forms [7],IC50 [7] [µM],"number of times that compound SI exceeds the reference drug SI, Axenic amastigote forms [7]",other results
"O=c1c(O[C@@H]2O[C@H](CO)[C@@H](O)[C@H](O)[C@H]2O)c(-c2ccc(O)cc2)oc2cc(O)cc(O)c12 [Compound 1, astragalin]",8.4,28.1 ± 1,14,6.7,35.1 ± 3.3,< 50 times,8,7.3,15,32.2 ± 1.6,8.1,29.2 ± 2.8,14,5.1,10,45.9 ± 2.7,236 ± 17.9,10.4,22.6 ± 1.7,21,IC50 compared with benznidazole [6]: significantly lower IC50 values compared with benznidazole
"C[C@H]1O[C@H](Oc2cc(O)c3c(=O)c(O[C@@H]4O[C@H](CO)[C@@H](O)[C@H](O)[C@H]4O)c(-c4ccc(O)c(O)c4)oc3c2)[C@@H](O)[C@@H](O)[C@@H]1O [Compound 7, petiolaroside]",>47.4,21.1 ± 1.7,79,>40.8,24.5 ± 1.1,more than 50 times,51,>29.5,59,33.9 ± 3.5,>51.5,19.4 ± 1.4,86,>36.0,72,27.8 ± 1.4,> 1000,>51.3,19.5 ± 0.8,103,"change in excreted catabolites [8]: decreases in the excretion of acetate; ultrastructural alterations by TEM [9]: no induction of substantial alterations; change in excreted catabolites [10]: an increase in the production of malate, succinate, ethanol, and lactate, but a decrease of excreted acetate and alanine levels; ultrastructural alterations by TEM [11]: All these changes occurred; decrease of average number of amastigotes per infected macrophage cell (L. braziliensis): 55%; infection rate decrease, percentage of inhibition capacity (L. braziliensis): 69%; decrease of average number of amastigotes per infected macrophage cell (L. infantum): 49%; infection rate decrease, percentage of inhibition capacity (L. infantum): 77%"
"CC(=O)O[C@H]1[C@H](Oc2c(-c3ccc(O)c(O)c3)oc3cc(O[C@@H]4O[C@@H](C)[C@H](O)[C@@H](O)[C@H]4O)cc(O)c3c2=O)O[C@H](CO)[C@@H](O)[C@@H]1O [Compound 8, 2′′-acetylpetiolaroside]",>34.5,29 ± 1.5,58,52.4,–,more than 50 times,66,>49.8,100,20.1 ± 1.7,>54.3,18.4 ± 1.3,91,>31.2,62,32.1 ± 2,> 1000,>39.2,25.5 ± 0.7,78,"change in excreted catabolites [8]: decreases in the excretion of acetate; ultrastructural alterations by TEM [9]: many of the parasites adopted distorted shapes with distorted cytoplasm; change in excreted catabolites [10]: an increase in the excretion of succinate, and acetate, followed by malate, alanine, lactate and ethanol; ultrastructural alterations by TEM [11]: induced changes in the shape of parasites, with them showing completely altered forms; decrease of average number of amastigotes per infected macrophage cell (L. braziliensis): 82%; infection rate decrease, percentage of inhibition capacity (L. braziliensis): 88%; decrease of average number of amastigotes per infected macrophage cell (L. infantum): 78%; infection rate decrease, percentage of inhibition capacity (L. infantum): 95%"
